Data published in patent publication US12408667B2, “Herbicidal mixtures comprising isoxaflutole, pyroxasulfone and an imidazolinone herbicide; and their use in soybean and cotton cultures” (BASF SE, priority 2018, dated 2025).

Test system: GALAP (Galium aparine)
Experiment: greenhouse experiment, herbicidal action, evaluated on a scale from 0 to 100
Format: in vivo
Settings: pre-emergence greenhouse
Text: Synergism can be described as an interaction where the combined effect of two or more compounds is greater than the sum of the individual effects of each of the compounds. The presence of a synergistic effect in terms of percent control, between two mixing partners (X and Y) can be calculated using the Colby equation (Colby, S. R., 1967, Calculating Synergistic and Antagonistic Responses in Herbicide Combinations, Weeds, 15, 21-22): E=X+Y−XY/100
When the observed combined control effect is greater than the expected (calculated) combined control effect (E), then the combined effect is synergistic.
The culture containers used were plastic flowerpots containing loamy sand with approximately 3.0% of humus as the substrate. The seeds of the test plants were sown separately for each species. For pre-emergence treatment, the active ingredients, which had been suspended or emulsified in water, were applied directly after sowing by means of finely distributing nozzles. The containers were irrigated gently to promote germination and growth and subsequently covered with transparent plastic hoods until the plants had rooted. This cover caused uniform germination of the test plants, unless this had been impaired by the active ingredients. […] During this time, the plants were tended, and their response to the individual treatments was evaluated. […]

## CS(=O)(=O)c1cc(C(F)(F)F)ccc1C(=O)c1cnoc1C1CC1 [Isoxaflutole, isoxaflutole]
Isoxaflutole 12.5 g/ha alone, 20 days, scale 0 to 100
  Herbicidal action against GALAP, Found: 0
Isoxaflutole 25 g/ha alone, test period 20 days, scale 0 to 100 (100 = no emergence or complete destruction)
  Herbicidal action against GALAP, Found: 0
